Earlier results as cited in EP3466413A1, “PHARMACEUTICAL COMPOSITION CONTAINING AGOMELATINE AND PROCESS FOR THE PREPARATION THEREOF” (KRKA, d.d., Novo mesto, priority 2017, dated 2019).
In brackets after ≈: the same amount, converted by molar mass. Read-outs that look alike come from different tables or passages of the source.

Experiments:
[1] = crystalline powder
[2] = second (proton) dissociation step, aqueous solution

| Structure (SMILES) | solubility in aqueous buffers (aqueous buffers) | solubility in aqueous solution (aqueous solution over the physiological pH range) | solubility (dichloromethane) [mg/mL] | solubility (methanol) | solubility in organic solvents (organic solvents such as methanol and dichloromethane) | solubility in water (water) | hygroscopicity [1] | pKa2 [2] |
| --- | --- | --- | --- | --- | --- | --- | --- | --- |
| COc1ccc2cccc(CCNC(C)=O)c2c1 [Agomelatine, N[2-(7-methoxy-1-naphthyl)ethyl] acetamide] | very slightly soluble | very slightly soluble | ~80 (≈ 329 mM) | approximately 500 mg/ml | freely soluble | practically insoluble | non-hygroscopic |  |
| O=C(O)C(=O)O [oxalic acid] |  |  |  |  |  |  |  | 4.19 |
